What all share (format): biochemical
For test [1], the target named is T1, KDR (Homo sapiens, UniProt P35968).
T1 construct: purchased BPS Bioscience, CA, USA
The test is described as follows: KDR enzymatic assay (Caliper LifeSciences technology). How it is done: (§1) The assays described here are performed on the Caliper Life Sciences LC3000 system This technology provides data on enzyme activity via measurement of the relative amounts of phosphorylated or unphosphorylated fluorescently labelled substrate peptide at the end of an enzymatic reaction. These different states of peptide are resolved by applying a potential difference across the sample. The presence of the charged phosphate group on the product (as opposed to the substrate) causes a different peptide mobility between the two peptides. This is visualized by excitation of the fluorescent label on the substrate and product peptides and represented as peaks within the analysis software.
(§2) In order to measure inhibitor activity of kinase inhibitors on this technology, a TTP Mosquito liquid handling instrument is used to place 0.25 ul of the appropriate concentration of inhibitor in 100% DMSO (for a dose response curve calculation) into each well of a 384-well plate. To this reaction components are added to a final volume of 25 ul. The table below indicates the sequences and concentrations for the assays described in this report. Standard components are 1 mM DTT (Sigma, D0632), 1 mM MgCl2 (Sigma, M1028), 100 mM HEPES pH 7.5 (Calbiochem, 391338), 0.015% Brij-35 (Sigma, B4184).
(§3) The reaction is incubated for 90 min at 25 C, and then stopped by the addition of 70 ul of Stop buffer (100 mM HEPES pH 7.5, 0.015% Brij-35, 10 mM EDTA (Sigma, E7889)).
(§4) The plate is read on a Caliper LC 3000 in an Off-Chip mobility shift assay format, on a 12-sipper chip. Unphosphorylated substrate and phosphorylated product peptide resolve as separate peaks allowing direct measurement of percentage of conversion of substrate to product. The percent conversion can be plotted against concentration of inhibitor to produce a sigmoidal dose response curve, from which an IC50 can be calculated using GeneData Condoseo or a similar product.

In test [2] the target is T2, Syk (Homo sapiens, UniProt P43405).
T2 construct: purchased BPS Bioscience, CA, USA
The test is described as follows: Syk enzyme assay (SYK flash plate assay / Caliper mobility shift). Put shortly:
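Flashplate format: 2.5 nM SYK, 400 nM biotinylated peptide, 10 μM ATP with 33P-ATP, pH 7.5, 1 h at 30 °C; radioactivity read, staurosporine background. Caliper format: 90 min at 25 °C, mobility-shift read of substrate-to-product conversion; IC50 from dose-response curve.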

Test [3] concerns the target T3, SRC (Homo sapiens, UniProt P12931).
T3 construct: purchased Carna Bioscience, Kobe, Japan
Kind of test: Src enzymatic assay (Caliper LifeSciences technology). On the procedure: as §1, §2, §3, §4

Test [4] deals with T4, BTK (Homo sapiens, UniProt Q06187).
T4 construct: purchased Carna Bioscience, Kobe, Japan
T4 sequence (Q06187 whole entry): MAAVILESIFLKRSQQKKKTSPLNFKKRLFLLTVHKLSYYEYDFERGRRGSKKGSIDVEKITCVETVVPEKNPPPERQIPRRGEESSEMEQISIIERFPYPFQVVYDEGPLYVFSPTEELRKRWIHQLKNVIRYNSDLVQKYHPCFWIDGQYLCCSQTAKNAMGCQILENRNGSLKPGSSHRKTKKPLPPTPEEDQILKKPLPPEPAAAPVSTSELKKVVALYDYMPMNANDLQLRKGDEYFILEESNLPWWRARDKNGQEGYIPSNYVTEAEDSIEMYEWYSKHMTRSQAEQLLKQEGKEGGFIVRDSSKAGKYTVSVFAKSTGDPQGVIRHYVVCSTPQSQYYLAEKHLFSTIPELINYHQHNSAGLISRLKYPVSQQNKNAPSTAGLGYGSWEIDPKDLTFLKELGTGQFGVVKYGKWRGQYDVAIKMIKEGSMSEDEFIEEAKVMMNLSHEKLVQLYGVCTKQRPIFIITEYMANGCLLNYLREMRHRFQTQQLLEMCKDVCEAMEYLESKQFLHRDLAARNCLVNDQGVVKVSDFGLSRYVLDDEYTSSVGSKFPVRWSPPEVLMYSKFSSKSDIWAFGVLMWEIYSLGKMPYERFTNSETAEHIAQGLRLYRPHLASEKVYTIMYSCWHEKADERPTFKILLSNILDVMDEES
The test is described as follows: BTK enzymatic assay (Caliper LifeSciences technology). How it is done: as §1, §2, §3, §4

T3 sequence (P12931 whole entry): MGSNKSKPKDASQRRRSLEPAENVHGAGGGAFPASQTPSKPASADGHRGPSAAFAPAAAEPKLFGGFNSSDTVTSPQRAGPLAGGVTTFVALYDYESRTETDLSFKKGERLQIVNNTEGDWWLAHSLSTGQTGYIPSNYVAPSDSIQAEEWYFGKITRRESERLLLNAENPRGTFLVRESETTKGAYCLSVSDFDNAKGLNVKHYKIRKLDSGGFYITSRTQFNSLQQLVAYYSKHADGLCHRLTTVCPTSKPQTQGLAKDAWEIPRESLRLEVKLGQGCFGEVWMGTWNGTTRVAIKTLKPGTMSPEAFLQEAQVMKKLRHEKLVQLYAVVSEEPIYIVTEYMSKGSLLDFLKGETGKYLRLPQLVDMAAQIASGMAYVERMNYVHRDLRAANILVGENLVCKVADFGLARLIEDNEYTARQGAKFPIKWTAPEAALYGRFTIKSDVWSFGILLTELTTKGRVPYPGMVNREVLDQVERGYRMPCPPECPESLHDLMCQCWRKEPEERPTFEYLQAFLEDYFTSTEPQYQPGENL
T1 sequence (P35968 20-1356): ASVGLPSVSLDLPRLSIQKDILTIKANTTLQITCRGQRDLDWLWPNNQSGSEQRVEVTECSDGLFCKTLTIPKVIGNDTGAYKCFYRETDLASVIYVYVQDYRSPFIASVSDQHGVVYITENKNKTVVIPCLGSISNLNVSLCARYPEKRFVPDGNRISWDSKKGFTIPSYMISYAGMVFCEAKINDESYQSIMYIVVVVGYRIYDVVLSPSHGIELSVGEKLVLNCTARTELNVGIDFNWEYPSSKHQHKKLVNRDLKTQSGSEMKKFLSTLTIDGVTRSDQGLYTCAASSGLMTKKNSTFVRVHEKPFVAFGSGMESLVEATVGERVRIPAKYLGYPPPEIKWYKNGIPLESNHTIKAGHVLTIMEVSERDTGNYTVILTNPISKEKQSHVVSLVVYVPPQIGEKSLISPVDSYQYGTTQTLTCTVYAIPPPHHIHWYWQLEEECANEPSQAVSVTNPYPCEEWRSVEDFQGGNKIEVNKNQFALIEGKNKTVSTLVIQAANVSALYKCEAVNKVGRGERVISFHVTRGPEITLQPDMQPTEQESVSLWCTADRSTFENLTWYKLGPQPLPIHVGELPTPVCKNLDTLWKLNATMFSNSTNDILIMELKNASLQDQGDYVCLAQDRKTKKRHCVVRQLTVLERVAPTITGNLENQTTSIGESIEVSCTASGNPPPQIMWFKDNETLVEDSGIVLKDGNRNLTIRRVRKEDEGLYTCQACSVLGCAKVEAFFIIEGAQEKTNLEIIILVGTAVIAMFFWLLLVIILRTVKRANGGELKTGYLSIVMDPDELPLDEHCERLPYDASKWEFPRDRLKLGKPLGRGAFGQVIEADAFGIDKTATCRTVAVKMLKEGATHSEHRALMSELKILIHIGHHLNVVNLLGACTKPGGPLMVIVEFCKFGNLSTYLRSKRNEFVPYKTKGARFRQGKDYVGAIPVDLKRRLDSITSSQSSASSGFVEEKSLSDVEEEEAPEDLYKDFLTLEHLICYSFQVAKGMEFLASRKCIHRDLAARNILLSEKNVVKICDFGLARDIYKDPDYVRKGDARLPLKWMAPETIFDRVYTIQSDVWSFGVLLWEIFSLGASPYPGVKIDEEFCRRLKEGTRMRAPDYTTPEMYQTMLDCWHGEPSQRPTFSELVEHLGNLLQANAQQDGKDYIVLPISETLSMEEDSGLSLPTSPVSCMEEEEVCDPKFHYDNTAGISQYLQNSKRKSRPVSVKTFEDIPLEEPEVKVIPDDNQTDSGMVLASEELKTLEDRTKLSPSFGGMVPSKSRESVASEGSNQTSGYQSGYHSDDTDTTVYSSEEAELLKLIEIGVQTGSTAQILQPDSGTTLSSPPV

Usually IC50 stands for the concentration that inhibits the measured activity by half. In the case of `COc1ccc(-c2cc3nccc(Nc4ccc5[nH]ccc5c4C)c3o2)cc1C` [Compound B50, [2-(4-Methoxy-3-methyl-phenyl)-furo[3,2-b]pyridin-7-yl]-(4-methyl-1H-indol-5-yl)-amine], the IC50 in test [1], in test [2] and in test [3] was 0.3 to 3 µM each time.
Regarding `Cc1cccc(-c2cc3nccc(Nc4ccc5[nH]ccc5c4C)c3o2)c1` [Compound B51, (4-Methyl-1H-indol-5-yl)-(2-m-tolyl-furo[3,2-b]pyridin-7-yl)-amine], the figures for the IC50 in test [1], in test [2] and in test [3] were 0.3 to 3 µM, 3 to 50 µM and 0.3 to 3 µM, respectively.
On to `Cc1cc(C)cc(-c2cc3nccc(Nc4ccc5[nH]ccc5c4C)c3o2)c1` [Compound B52, [2-(3,5-Dimethyl-phenyl)-furo[3,2-b]pyridin-7-yl]-(4-methyl-1H-indol-5-yl)-amine], for which the IC50 in test [1], in test [2] and in test [3] was 0.3 to 3 µM in each case.
Consider `COc1ccc(-c2cc3nccc(Nc4ccc5[nH]ccc5c4C)c3o2)cc1OC` [Compound B53, [2-(3,4-Dimethoxy-phenyl)-furo[3,2-b]pyridin-7-yl]-(4-methyl-1H-indol-5-yl)-amine], for which the IC50 in test [1], in test [2] and in test [3] was < 0.3 µM in each case.
As for `Cc1c(Nc2ccnc3cc(-c4ccc(N5CCOCC5)cc4)oc23)ccc2[nH]ccc12` [Compound B54], the IC50 in test [1] is 0.3 to 3 µM; in test [2], 0.3 to 3 µM; in test [3], < 0.3 µM.
With `COc1ccc(-c2cc3nccc(Nc4ccc5[nH]ccc5c4C)c3o2)c(OC)c1OC` [Compound B56], the values for the IC50 in test [1], in test [2] and in test [3] were < 0.3 µM, 0.3 to 3 µM and < 0.3 µM, respectively.
As for `COc1cccc(-c2cc3nccc(Nc4ccc5[nH]ccc5c4C)c3o2)c1` [Compound B57, [2-(3-Methoxy-phenyl)-furo[3,2-b]pyridin-7-yl]-(4-methyl-1H-indol-5-yl)-amine], the IC50 in test [1] was < 0.3 µM; in test [2], 0.3 to 3 µM; in test [3], < 0.3 µM.
Turning to `Cc1c(Nc2ccnc3cc(-c4ccc(OCCCN(C)C)cc4)oc23)ccc2[nH]ccc12` [Compound B58, {2-[4-(3-Dimethylamino-propoxy)-phenyl]-furo[3,2-b]pyridin-7-yl}-(4-methyl-1H-indo-5-yl)-amine], the IC50 was < 0.3 µM in test [1], 0.3 to 3 µM in test [2] and < 0.3 µM in test [3].
In the case of `COc1cccc(-c2cc3nccc(Nc4ccc5[nH]ccc5c4C)c3o2)c1OC` [Compound B59, [2-(2,3-Dimethoxy-phenyl)-furo[3,2-b]pyridin-7-yl]-(4-methyl-1H-indol-5-yl)-amine], the IC50 in test [1] is < 0.3 µM; in test [2], 0.3 to 3 µM; in test [3], < 0.3 µM.
`Cc1c(Nc2ccnc3cc(-c4ccc5c(c4)OCCO5)oc23)ccc2[nH]ccc12` [Compound B60, [2-(2,3-Dihydro-benzo[1,4]dioxin-6-yl)-furo[3,2-b]pyridin-7-yl]-(4-methyl-1H-indol-5-yl)-amine]: the IC50 in test [1] was 0.3 to 3 µM; in test [2], 0.3 to 3 µM; in test [3], < 0.3 µM.
Turning to `Cc1noc(C)c1-c1cc2nccc(Nc3ccc4[nH]ccc4c3C)c2o1` [Compound B63, [2-(3,5-Dimethyl-isoxazol-4-yl)-furo[3,2-b]pyridin-7-yl]-(4-methyl-1H-indol-5-yl)-amine], the IC50 in test [1] is < 0.3 µM; in test [2] it was 0.3 to 3 µM; in test [3], < 0.3 µM.
With `COc1ccc(-c2cc3nccc(-c4ccccc4)c3o2)cc1NC(=O)[C@@H]1C[C@@H](O)CN1` [Compound C40], the half-maximal inhibitory concentration (IC50) lay in the range of 0.3 to 3 µM in test [1], 0.3 to 3 µM in test [2] and 3 to 50 µM in test [3].
With `COc1cc(-c2cc3nccc(-c4cnc5c(c4)CCCO5)c3o2)cc(OC)c1OC` [Compound C113], the figures for the IC50 in test [1], in test [2] and in test [3] were 0.3 to 3 µM, < 0.3 µM and 0.3 to 3 µM, respectively.
On to `COc1cc(-c2cc3nccc(-c4c[nH]nc4C)c3o2)cc(OC)c1OC` [Compound C127], for which the IC50 in test [1] was 0.3 to 3 µM; in test [2], < 0.3 µM; in test [3], 0.3 to 3 µM.
Take `COc1ccc(O)cc1-c1ccnc2cc(-c3cc(OC)c(OC)c(OC)c3)oc12` [Compound C136]: the IC50 in test [1] is 0.3 to 3 µM; in test [2] it was < 0.3 µM; in test [3], 0.3 to 3 µM.
On to `COc1cc(-c2cc3nccc(-c4cc(OC(C)C)cc(C(=O)O)c4)c3o2)cc(OC)c1OC` [Compound C155], for which the IC50 in test [1] is 0.3 to 3 µM; in test [2], < 0.3 µM; in test [3], 0.3 to 3 µM.
Regarding `COc1cc(-c2cc3nccc(-c4cc(OC(F)(F)F)cc(C(=O)O)c4)c3o2)cc(OC)c1OC` [Compound C163], the half-maximal inhibitory concentration (IC50) in test [1] was 0.3 to 3 µM; in test [2], < 0.3 µM; in test [3], 0.3 to 3 µM.
In the case of `COc1ccc(OC)c(-c2cc3nccc(-c4cccc(C(=O)N[C@@H]5CCCC[C@@H]5N)c4)c3o2)c1` [Compound C178], the results for the half-maximal inhibitory concentration (IC50) in test [1], in test [2] and in test [3] were 0.3 to 3 µM, < 0.3 µM and < 0.3 µM, respectively.
For the compound `C=CC(=O)NCc1cccc(-c2cc3nccc(Oc4ccc(Oc5ccccc5)cc4)c3o2)c1` [Compound D4, N-{3-[7-(4-Phenoxy-phenoxy)-furo[3,2-b]pyridin-2-yl]-benzyl}-acrylamide], in test [4], the IC50 was < 0.3 µM.
On the same count and under the same terms, the figure for `CCC(=O)Nc1cccc(-c2cc3nccc(Oc4ccccc4)c3o2)c1` [Compound D8, N-[3-(7-Phenoxy-furo[3,2-b]pyridin-2-yl)-phenyl]-propionamide] is 3 to 50 µM.
On the same count and under the same terms, the figure for `C=CC(=O)Nc1cccc(-c2cc3nccc(Oc4cccc(Cl)c4)c3o2)c1` [Compound D9, N-{3-[7-(3-Chloro-phenoxy)-furo[3,2-b]pyridin-2-yl]-phenyl}-acrylamide] is 3 to 50 µM; for `C=CC(=O)Nc1cccc(-c2cc3nccc(Oc4ccc5ncccc5c4)c3o2)c1` [Compound D10, N-{3-[7-(Quinolin-6-yloxy)-furo[3,2-b]pyridin-2-yl]-phenyl}-acrylamide] it is 3 to 50 µM; for `C=CC(=O)Nc1cccc(-c2cc3nccc(Oc4ccc(Cl)cc4)c3o2)c1` [Compound D11, N-{3-[7-(4-Chloro-phenoxy)-furo[3,2-b]pyridin-2-yl]-phenyl}-acrylamide] it is 0.3 to 3 µM.
Same read-out and setting: for `CCC(=O)Nc1cccc(-c2cc3nccc(-c4ccccc4)c3o2)c1` [Compound D14, N-[3-(7-Phenyl-furo[3,2-b]pyridin-2-yl)-phenyl]-propionamide] the value was 3 to 50 µM; for `C=CC(=O)NCc1cccc(-c2cc3nccc(-c4ccccc4)c3o2)c1` [Compound D15, N-[3-(7-Phenyl-furo[3,2-b]pyridin-2-yl)-benzyl]-acrylamide], 0.3 to 3 µM.
Regarding `O=C(CCl)NCc1cccc(-c2cc3nccc(-c4ccccc4)c3o2)c1` [Compound D16, 2-Chloro-N-[3-(7-phenyl-furo[3,2-b]pyridin-2-yl)-benzyl]-acetamide], the IC50 in test [4] lay within 0.3 to 3 µM.
Same read-out and setting: the figure for `C=CC(=O)Nc1cccc(Oc2ccnc3cc(-c4ccccc4)oc23)c1` [Compound D19, N-[3-(2-Phenyl-furo[3,2-b]pyridin-7-yloxy)-phenyl]-acrylamide] is 0.3 to 3 µM; for `O=C(CCl)Nc1cccc(Oc2ccnc3cc(-c4ccccc4)oc23)c1` [Compound D20, 2-Chloro-N-[3-(2-phenyl-furo[3,2-b]pyridin-7-yloxy)-phenyl]-acetamide] it is < 0.3 µM.
Same read-out and setting: the figure for `CCC(=O)Nc1cccc(Oc2ccnc3cc(-c4ccccc4)oc23)c1` [Compound D21, N-[3-(2-Phenyl-furo[3,2-b]pyridin-7-yloxy)-phenyl]-propionamide] is 3 to 50 µM; for `C=CC(=O)Nc1ccc(Oc2ccnc3cc(-c4ccccc4)oc23)cc1` [Compound D22, N-[4-(2-Phenyl-furo[3,2-b]pyridin-7-yloxy)-phenyl]-acrylamide] it is 0.3 to 3 µM; for `O=C(CCl)Nc1ccc(Oc2ccnc3cc(-c4ccccc4)oc23)cc1` [Compound D23, 2-Chloro-N-[4-(2-phenyl-furo[3,2-b]pyridin-7-yloxy)-phenyl]-acetamide] it is < 0.3 µM.
Still for that read-out and setting: the figure for `CCC(=O)Nc1ccc(Oc2ccnc3cc(-c4ccccc4)oc23)cc1` [Compound D24, N-[4-(2-Phenyl-furo[3,2-b]pyridin-7-yloxy)-phenyl]-propionamide] is 3 to 50 µM.
In test [4], `C=CC(=O)NCc1ccc(-c2ccnc3cc(-c4ccccc4)oc23)cc1` [Compound D25, N-[4-(2-Phenyl-furo[3,2-b]pyridin-7-yl)-benzyl]-acrylamide] registered an IC50 of 0.3 to 3 µM.
